Experimental data taken from ChEMBL document CHEMBL4376867 (J Med Chem, 2020).
pIC50: −log10 of the molar value.

Assays:
[1] = tested on: ACHN; assay: Antiproliferative activity against human ACHN cells harboring CDKN2A mutation assessed as reduction in cell viability after 96 hrs by CellTiter-Glo luminescence assay; assay type: functional, cell-based
[2] = biological target: T1, Serine/threonine-protein kinase 17A (Homo sapiens, UniProt Q9UEE5); assay: Inhibition of wild-type human partial length DRAK1 (R32 to E363 residues) expressed in bacterial expression system by Kinomescan method
T1 sequence (Q9UEE5 whole entry): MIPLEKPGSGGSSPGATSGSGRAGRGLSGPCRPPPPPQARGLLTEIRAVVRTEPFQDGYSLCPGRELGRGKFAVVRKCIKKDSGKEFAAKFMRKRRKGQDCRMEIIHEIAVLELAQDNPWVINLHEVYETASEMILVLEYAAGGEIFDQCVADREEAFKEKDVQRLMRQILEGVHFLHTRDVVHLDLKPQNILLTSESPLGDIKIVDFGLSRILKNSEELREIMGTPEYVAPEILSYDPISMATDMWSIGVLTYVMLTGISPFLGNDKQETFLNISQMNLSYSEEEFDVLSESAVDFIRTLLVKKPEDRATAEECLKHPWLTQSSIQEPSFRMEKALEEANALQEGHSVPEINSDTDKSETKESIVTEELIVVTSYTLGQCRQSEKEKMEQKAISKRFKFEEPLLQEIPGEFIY

[3] = biological target: T2, Serine/threonine-protein kinase TBK1 (Homo sapiens, UniProt Q9UHD2)
T2 sequence (Q9UHD2 whole entry): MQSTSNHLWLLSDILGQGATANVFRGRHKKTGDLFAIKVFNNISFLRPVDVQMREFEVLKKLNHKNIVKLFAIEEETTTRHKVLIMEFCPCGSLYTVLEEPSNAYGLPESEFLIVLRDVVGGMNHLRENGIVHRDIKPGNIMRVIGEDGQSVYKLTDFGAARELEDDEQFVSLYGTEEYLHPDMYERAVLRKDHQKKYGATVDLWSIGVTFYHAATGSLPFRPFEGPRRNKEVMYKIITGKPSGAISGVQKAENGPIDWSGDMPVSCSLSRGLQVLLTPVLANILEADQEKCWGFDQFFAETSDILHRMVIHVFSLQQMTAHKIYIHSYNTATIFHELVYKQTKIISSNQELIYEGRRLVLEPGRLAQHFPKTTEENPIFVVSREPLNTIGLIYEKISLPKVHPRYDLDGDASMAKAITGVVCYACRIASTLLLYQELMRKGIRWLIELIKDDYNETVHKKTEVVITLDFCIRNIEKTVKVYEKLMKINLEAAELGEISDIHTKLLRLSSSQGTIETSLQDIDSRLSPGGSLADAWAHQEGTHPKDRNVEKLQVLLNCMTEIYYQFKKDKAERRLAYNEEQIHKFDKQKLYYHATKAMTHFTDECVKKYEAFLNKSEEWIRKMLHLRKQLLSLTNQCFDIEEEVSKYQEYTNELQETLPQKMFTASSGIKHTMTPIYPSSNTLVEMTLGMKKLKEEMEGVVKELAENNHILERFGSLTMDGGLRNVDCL

[4] = biological target: T2, Serine/threonine-protein kinase TBK1; assay: Inhibition of recombinant full length human N-terminal His-tagged TBK1 using biotin-labelled Ahx-GDEDFSSFAEPG peptide as substrate preincubated with enzyme for 15 mins followed by substrate addition and further incubated for 30 mins in presence of 1 mM of ATP by TR-FRET assay
[5] = biological target: Ribosomal protein S6 kinase alpha-6 (Homo sapiens, UniProt Q9UK32); assay: Inhibition of recombinant full length human His6-tagged RSK4 expressed in baculovirus infected sf21 cells using biotin labelled Ahx-KKLNRTLSFAEPG peptide as substrate preincubated with enzyme for 15 mins followed by substrate addition and further incubated for 30 mins in presence of 10 uM of ATP by TR-FRET assay
Chain of Ribosomal protein S6 kinase alpha-6 (Q9UK32 whole entry): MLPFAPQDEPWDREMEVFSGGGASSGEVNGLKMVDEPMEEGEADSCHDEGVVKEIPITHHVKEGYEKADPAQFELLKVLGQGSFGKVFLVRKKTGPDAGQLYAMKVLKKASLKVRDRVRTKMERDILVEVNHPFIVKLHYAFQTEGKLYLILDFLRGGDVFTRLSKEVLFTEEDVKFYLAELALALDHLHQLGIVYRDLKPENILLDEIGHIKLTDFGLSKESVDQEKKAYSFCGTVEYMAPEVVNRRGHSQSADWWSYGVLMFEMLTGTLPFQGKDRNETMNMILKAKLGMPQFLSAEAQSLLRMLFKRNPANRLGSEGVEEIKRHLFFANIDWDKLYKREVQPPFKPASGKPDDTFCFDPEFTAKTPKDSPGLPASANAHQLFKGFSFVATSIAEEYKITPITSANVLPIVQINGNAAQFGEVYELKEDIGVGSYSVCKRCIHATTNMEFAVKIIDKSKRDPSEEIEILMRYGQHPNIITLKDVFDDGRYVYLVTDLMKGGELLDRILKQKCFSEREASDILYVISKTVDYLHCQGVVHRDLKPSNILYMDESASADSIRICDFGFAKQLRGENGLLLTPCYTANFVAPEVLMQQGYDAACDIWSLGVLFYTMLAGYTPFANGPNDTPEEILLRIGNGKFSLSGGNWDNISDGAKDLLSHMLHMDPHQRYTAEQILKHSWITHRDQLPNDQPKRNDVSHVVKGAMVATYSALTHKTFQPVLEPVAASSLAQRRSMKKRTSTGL

[6] = biological target: T3, Receptor-type tyrosine-protein kinase FLT3 (Homo sapiens, UniProt P36888); assay: Inhibition of recombinant human N-terminal GST-tagged FLT3 (564 to end residues) expressed in sf21 cells using biotin labelled Ahx-GGEEEEYFELVKKKK peptide as substrate preincubated with enzyme for 15 mins followed by substrate addition and further incubated for 45 mins in presence of 10 uM of ATP by TR-FRET assay
T3 sequence (P36888 whole entry): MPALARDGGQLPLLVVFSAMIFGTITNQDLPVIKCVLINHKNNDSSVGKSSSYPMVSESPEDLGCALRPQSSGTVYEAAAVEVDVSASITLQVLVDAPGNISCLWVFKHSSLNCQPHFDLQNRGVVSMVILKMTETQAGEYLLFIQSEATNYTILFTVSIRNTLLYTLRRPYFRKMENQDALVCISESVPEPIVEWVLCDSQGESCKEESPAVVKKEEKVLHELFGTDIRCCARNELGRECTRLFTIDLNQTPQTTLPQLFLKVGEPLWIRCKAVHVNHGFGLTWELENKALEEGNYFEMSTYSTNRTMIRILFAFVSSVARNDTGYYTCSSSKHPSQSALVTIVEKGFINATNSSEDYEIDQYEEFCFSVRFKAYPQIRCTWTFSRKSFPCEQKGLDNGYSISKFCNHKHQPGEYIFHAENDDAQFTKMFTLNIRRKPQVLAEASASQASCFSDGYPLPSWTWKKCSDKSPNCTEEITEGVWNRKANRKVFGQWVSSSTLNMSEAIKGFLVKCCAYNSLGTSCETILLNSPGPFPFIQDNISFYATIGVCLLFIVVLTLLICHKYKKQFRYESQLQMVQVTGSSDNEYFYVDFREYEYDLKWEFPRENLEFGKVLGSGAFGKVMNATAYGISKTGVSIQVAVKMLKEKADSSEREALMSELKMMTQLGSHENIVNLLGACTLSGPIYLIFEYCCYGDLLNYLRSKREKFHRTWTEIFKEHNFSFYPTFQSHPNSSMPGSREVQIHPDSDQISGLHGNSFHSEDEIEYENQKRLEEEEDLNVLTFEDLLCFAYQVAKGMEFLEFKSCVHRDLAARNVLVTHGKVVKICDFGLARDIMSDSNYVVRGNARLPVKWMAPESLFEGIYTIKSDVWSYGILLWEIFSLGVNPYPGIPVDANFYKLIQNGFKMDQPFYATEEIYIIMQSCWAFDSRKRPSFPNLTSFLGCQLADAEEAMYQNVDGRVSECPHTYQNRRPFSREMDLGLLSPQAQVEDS

[7] = tested on: SK-MEL-2; assay: Antiproliferative activity against human SK-MEL-2 cells harboring NRAS/TP53 mutation assessed as reduction in cell viability after 96 hrs by CellTiter-Glo luminescence assay; assay type: functional, cell-based; settings: SK-MEL-2, 96 h
[8] = biological target: T4, IKK epsilon/TBK1 (Homo sapiens, UniProt Q14164+Q9UHD2); assay: Inhibition of IKKepsilon/TBK1 in human MDB-MB-231 cells transduced with lentiviral vector expressing human IRF3 assessed as decrease in poly(I:C)-stimulated IRF3 phosphorylation at S385/386 residues preincubated for 1 hr followed by poly(I:C) addition and measured after 1 hr; assay type: cell-based
T4 sequence (Q14164 whole entry): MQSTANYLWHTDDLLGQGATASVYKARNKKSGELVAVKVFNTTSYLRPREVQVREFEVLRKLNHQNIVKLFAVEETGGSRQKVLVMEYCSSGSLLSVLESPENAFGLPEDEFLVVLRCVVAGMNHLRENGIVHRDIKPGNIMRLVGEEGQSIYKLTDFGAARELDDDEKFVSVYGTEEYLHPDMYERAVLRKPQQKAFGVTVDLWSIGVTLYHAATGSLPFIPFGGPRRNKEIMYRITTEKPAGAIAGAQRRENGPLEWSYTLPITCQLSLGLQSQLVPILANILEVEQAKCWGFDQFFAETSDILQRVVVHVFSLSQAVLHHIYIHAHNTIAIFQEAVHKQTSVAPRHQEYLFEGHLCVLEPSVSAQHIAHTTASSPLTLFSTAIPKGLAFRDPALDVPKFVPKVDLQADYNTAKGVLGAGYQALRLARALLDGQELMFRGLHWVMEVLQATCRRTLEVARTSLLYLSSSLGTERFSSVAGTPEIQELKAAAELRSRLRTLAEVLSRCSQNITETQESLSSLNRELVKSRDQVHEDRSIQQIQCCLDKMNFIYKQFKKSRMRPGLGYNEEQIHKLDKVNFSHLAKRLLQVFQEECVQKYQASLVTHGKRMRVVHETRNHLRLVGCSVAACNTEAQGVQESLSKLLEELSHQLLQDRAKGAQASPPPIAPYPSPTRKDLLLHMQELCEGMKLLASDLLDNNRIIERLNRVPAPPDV
T4 sequence (Q9UHD2 whole entry): T2 sequence (Q9UHD2 whole entry)

[9] = biological target: CDK9/cyclin T1 (Homo sapiens, UniProt P50750); assay: Inhibition of recombinant full length human His-tagged CDK9/CyclinT1 expressed in baculovirus expression system using biotin-labelled Ttds-YISPLKSPYKISEG peptide as substrate preincubated with enzyme for 15 mins followed by substrate addition and further incubated for 25 mins presence of 10 uM of ATP by TR-FRET assay
Chain of CDK9/cyclin T1 (O60563 whole entry): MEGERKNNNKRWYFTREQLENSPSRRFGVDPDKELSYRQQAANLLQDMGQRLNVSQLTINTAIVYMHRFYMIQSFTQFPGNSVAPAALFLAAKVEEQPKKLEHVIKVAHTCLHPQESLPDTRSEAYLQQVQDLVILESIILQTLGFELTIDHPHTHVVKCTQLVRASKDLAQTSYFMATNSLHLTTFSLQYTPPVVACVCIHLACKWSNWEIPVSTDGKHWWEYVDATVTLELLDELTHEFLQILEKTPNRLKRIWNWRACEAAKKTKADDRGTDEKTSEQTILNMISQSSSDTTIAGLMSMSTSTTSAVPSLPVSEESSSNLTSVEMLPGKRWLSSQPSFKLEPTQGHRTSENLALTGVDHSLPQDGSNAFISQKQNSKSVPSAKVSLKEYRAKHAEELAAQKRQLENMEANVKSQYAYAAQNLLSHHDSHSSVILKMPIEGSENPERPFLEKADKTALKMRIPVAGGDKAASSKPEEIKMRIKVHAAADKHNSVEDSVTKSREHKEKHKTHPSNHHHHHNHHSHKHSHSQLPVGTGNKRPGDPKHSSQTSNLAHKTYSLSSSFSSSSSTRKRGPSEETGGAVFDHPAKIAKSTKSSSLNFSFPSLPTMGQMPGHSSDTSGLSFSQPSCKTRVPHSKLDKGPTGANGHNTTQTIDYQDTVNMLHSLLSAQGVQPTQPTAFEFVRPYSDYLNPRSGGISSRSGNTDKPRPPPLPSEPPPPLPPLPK
Chain of CDK9/cyclin T1 (P50750 whole entry): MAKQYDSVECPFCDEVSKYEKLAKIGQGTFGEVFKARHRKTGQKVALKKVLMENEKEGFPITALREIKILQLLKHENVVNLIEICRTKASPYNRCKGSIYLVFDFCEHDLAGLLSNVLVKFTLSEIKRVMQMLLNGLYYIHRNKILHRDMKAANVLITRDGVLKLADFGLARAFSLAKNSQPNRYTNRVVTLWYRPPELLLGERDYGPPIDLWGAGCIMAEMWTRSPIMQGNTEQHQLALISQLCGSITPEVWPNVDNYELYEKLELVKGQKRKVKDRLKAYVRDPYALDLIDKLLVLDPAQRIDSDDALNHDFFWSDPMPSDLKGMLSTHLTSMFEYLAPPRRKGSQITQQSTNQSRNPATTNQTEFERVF

[10] = biological target: T5, Inhibitor of nuclear factor kappa-B kinase subunit epsilon (Homo sapiens, UniProt Q14164); assay: Inhibition of recombinant full length human C-terminal GST-tagged IKKepsilon expressed in baculovirus expression system using biotin-labelled Ahx-GDEDFSSFAEPG peptide as substrate preincubated with enzyme for 15 mins followed by substrate addition and further incubated for 30 mins in presence of 10 uM of ATP by TR-FRET assay
T5 sequence (Q14164 whole entry): T4 sequence (Q14164 whole entry)

[11] = Apparent permeability of compound across basal to apical membrane in human Caco2 cells at 2 uM in DMSO after 2 hrs by LC-MS/MS analysis; assay type: ADME, cell-based; settings: Caco-2
[12] = Apparent permeability of compound across apical to basal membrane in human Caco2 cells at 2 uM in DMSO after 2 hrs by LC-MS/MS analysis; assay type: ADME, cell-based; settings: Caco-2
[13] = Efflux ratio of apparent permeability across basolateral to apical membrane over apical to basolateral membrane in human Caco2 cells; assay type: ADME, cell-based; settings: Caco-2

`C[C@H](c1ccnc(Nc2nc3ccc(-c4cnn(CC5CCC5)c4)cc3[nH]2)c1)N1CCN(C(=O)CC(F)(F)F)CC1` gave a pIC50 [1] of 5.27, a pIC50 [2] of 7.82 and a pIC50 [3] of 8.70. For the same compound, the pIC50 [4] was 8.22, the pIC50 [5] was 6.49 and the pIC50 [6] was 6.45. For the same compound, the pIC50 [7] was 5.43, the pIC50 [8] was 7.03 and the pIC50 [9] was under 4.70. The pIC50 [10] was 8.40.
`CCn1cc(-c2ccc3nc(Nc4cc(CN5CCN(C(=O)CC(F)(F)F)CC5)ccn4)[nH]c3c2)cn1` gave a Papp B→A at 2 h, 2 µM [11] of 17.3 ×10⁻⁶ cm/s, a pIC50 [4] of 6.28 and a pIC50 [5] of 5.05. It also gave a pIC50 [6] of 7.77, a Papp A→B at 2 h, 2 µM [12] of 1.7 ×10⁻⁶ cm/s and a pIC50 [8] of 5.80. It also gave an efflux ratio [13] of 10, a pIC50 [9] of 5.84 and a pIC50 [10] of 7.01.
`O=C(NCC1CC1)c1ccc2nc(Nc3cc(CN4CCN(C(=O)CC(F)(F)F)CC4)ccn3)[nH]c2c1` gave a pIC50 [1] of under 4.48, a pIC50 [3] of 7.03 and a Papp B→A at 2 h, 2 µM [11] of 15.5 ×10⁻⁶ cm/s. For the same compound, the pIC50 [4] was 5.86, the Papp A→B at 2 h, 2 µM [12] was 0.39 ×10⁻⁶ cm/s and the pIC50 [7] was 5.47. It also gave an efflux ratio [13] of 40, a pIC50 [9] of under 4.70 and a pIC50 [10] of 7.10.
Compound `N#Cc1ccc2nc(Nc3cc(CN4CCN(C(=O)CC(F)(F)F)CC4)ccn3)[nH]c2c1` has a pIC50 [3] of 7.54, a Papp B→A at 2 h, 2 µM [11] of 26.8 ×10⁻⁶ cm/s and a pIC50 [4] of 6.21. For the same compound, the Papp A→B at 2 h, 2 µM [12] was 3.2 ×10⁻⁶ cm/s, the pIC50 [8] was 5.69 and the efflux ratio [13] was 8.3. The pIC50 [9] was 8.30 and the pIC50 [10] was 7.77.
